Patent publication US12303898B2, “Microfluidic devices and methods of use” (The Governing Council of the University of Toronto, priority 2018, dated 2025)

Legend:
QPCTL = molecular target: T1, QPCTL (Homo sapiens, UniProt Q9NXS2); test: Flow cytometry and immunofluorescence of CD47 antibody binding in HAP1 cells after QPCTL inhibitor treatment; type: cell-based; conditions: inhibitor treatment (FIG. 14B, 14D, 14E), CC2C6 detects pyro-Glu modified CD47
T1 construct: endogenous in cells; host or cells: HAP1 cells (Horizon, clone C631)
Description: Flow cytometry. Cells were dissociated with 0.125% trypsin and washed once in once in Flow buffer (PBS with 2% BSA). For cell-surface analysis, antibody staining was carried out in Flow buffer for 30 min on ice at 4° C. in the dark. For intracellular antigens, cells were first fixed with 4% PFA (Electron Microscopy Sciences) in PBS for 10 min on ice, followed by permeabilization using Flow buffer with 0.1% TritonX-100 (Sigma) for 5 min at room temperature. Cells were washed twice with Flow buffer, followed by staining for 30 min on ice at 4° C. in the dark. Stained cells were washed thrice with Flow buffer and 7-AAD viability dye (3-5 μl, BioLegend) was added before quantification. […] Stained cells were quantified on an LSRII flow cytometer (BD Biosciences) or an iQue Screener PLUS (IntelliCyt), and data were analyzed using FlowJo software (RRID:SCR_008520). […]
Immunofluorescence microscopy. […] For mean fluorescence intensity (MFI) measurements, Membrite™ staining intensity was used for automated image segmentation (ImageJ custom macro, available upon request) for operator independent unbiased selection of primary regions of interest (ROI) masks (in the green channel) and the mean fluorescence intensity was measured from the APC and/or Alexa594 channel. […]

CD47 = test: Validation of CD47 sgRNA knock-out HAP1 cell lines by flow cytometry and microfluidic sorting; type: cell-based, human; conditions: HAP1 cells, CD47 gene (FIG. 11C)
Text: As shown in FIG. 11A-C, this included sorting the wildtype (WT) HAP1 cells at different flow rates to decide on the ideal operating conditions, assessing the sorting of HAP1 cells transduced with sgRNAs targeting the CD47 gene (which should result in a decrease in the number of CD47+ cells), and mixing WT and clone cells together, sorting them and recovering the initial ratios. Experimental parameters were designed to have the majority of WT HAP1s be sorted into the middle bin thus upregulation and downregulation of CD47 could be assessed. […]
MICS sorting. […] Cells were sorted by MICS at a concentration of ˜5×10^6 cells/ml in HBSS with 2% BSA; initial cell concentration was measured using a Countess Automated Cell Counter (Invitrogen). […] Sorted samples were collected in their respective syringes, and the volume of solution collected in each syringe was measured by weight. […] Each sample was then loaded onto a 10-chambered microscope slide (Quick Read 3805, Globe Scientific) and cells were counted under fluorescent excitation using a custom counting macro and a Nikon TI Eclipse microscope. Sort efficiency was calculated by dividing the number of cells collected in the medium and high outlets by the total number of cells collected (low, medium and high). […]

QPCT target loci = test: CRISPR editing analysis (TIDE / ICE) of double-sgRNA infected samples, QPCT target loci; type: cell-based, human; conditions: two independent experiments; for KO-score: ICE; for mean percent edited: TIDE
Description: (§1) Generation of CD47, QPCT and QPCTL knock-out cells. For transduction experiments using cell pools, single-stranded sgRNA oligos were annealed using T4 PNK in T4 ligation buffer (both NEB), and ligated into digested (BsmBI; NEB), phosphatase-treated (rSAP or CIP, NEB) and gel-purified modified pLCKO (for HAP1-Cas9) or pLCV2 (for HAP1, 293T and KMS11) backbones^24,25 using T4 DNA ligase. All plasmids were Sanger sequence verified and virus was prepared and titered as described above. HAP1, HAP1-Cas9 cells, 293T cells or KMS11 cells were infected with target and control gRNAs (MOI<1) in presence of 8 μg/ml polybrene. 24 h post infection, the medium was replaced with fresh medium containing puromycin (1 ug/ml for HAP1 and HAP1-Cas9, 1-2 ug/ml for 293T, 0.5 ug/ml for KMS11) and cells were incubated for 48 h. Cells were further cultured in selection-free medium as indicated for individual experiments (typically T3-T6), and passaged every 3-4 days. […] For infections with two sgRNAs (HAP1-Cas9 only), the second sgRNA was cloned into pLCKO hygro. Selection was carried out in puromycin (1 ug/ml) and hygromycin (800 ug/ml)-containing medium for the first 48 h, then in hygromycin-only medium for further 4-5 days. For single-cell knock-out clones (HAP1 only), sgRNAs were cloned into modified PX459v2.0 (from Addgene #62988, 1 kb stuffer sequence added). HAP1 cells were transfected using Lipofectamine 3000 (3.75 μl and 2.3 μg plasmid per 6-well), selected with puromycin for 48 h as above and seeded in limiting dilutions (1 cell/100 μl/96-well) 3 days later. Single-cell colonies were expanded, cryo-banked (in standard medium with 10% DMSO and a total of 20% FBS) and analyzed for mutations as described below. An sgRNA targeting the AAVS1 locus was used as negative control.
CRISPR editing analysis. For analysing indels after CRISPR-mediated editing, genomic DNA was isolated using the QIAamp DNA Blood Mini kit (Qiagen) or the Extracta DNA Prep kit (Quantabio). sgRNA target regions (100-200 bp up- and 500 bp downstream of sgRNA sequence) were amplified by touchdown PCR (−0.5° C./cycle from 72° C. to 60° C. plus 10 additional cycles at 59° C.) from 50-100 ng input DNA, PCR products were purified using the PureLink Quick PCR purification kit (Invitrogen) if necessary and analyzed by Sanger sequencing. Sequences were analyzed to determine the percentage of edited sequences contained in the sample using TIDE^49 and a “KO-score” using ICE^50 (Synthego). Non-edited cells amplified with the same primers were used as control samples. A representative analysis of double-sgRNA infected samples from two independent experiments yielded the following editing results for QPCT and QPCTL target loci (by sgRNA; mean percent edited/KO-score±SD): QPCTL #1 58.2/NA±16.2/N, QPCTL #2 33.23/47±32.96/0, QPCT #1 33.15/56±36.51/0, QPCT #2 80.2/76.4±19.85/2.42, QPCT #3 68.18/36.33±4.29/2.08; AAVS1/CD47 #1 (background or off-target, mean±SD over all QPCT and QPCTL target loci) 14.4/1.33±14.95/0.58. For single-cell derived clones, TIDE and ICE were used for screening purposes, and mutations were independently confirmed by PCR, Sanger sequencing and sequence alignment as described.

QPCTL target loci = test: CRISPR editing analysis (TIDE / ICE) of double-sgRNA infected samples, QPCTL target loci; type: cell-based, human; conditions: two independent experiments; for mean percent edited: TIDE
Description: as §1, with “For single-cell knock-out clones (HAP1 only), sgRNAs were cloned into modified PX459v2.0 (from Addgene #62988, 1 kb stuffer sequence added). HAP1 cells were transfected using Lipofectamine 3000 (3.75 μl and 2.3 μg plasmid per 6-well), selected with puromycin for 48 h as above and seeded in limiting dilutions (1 cell/100 μl/96-well) 3 days later.” left out, “An sgRNA targeting the AAVS1 locus was used as negative control.” left out
CRISPR editing analysis. For analysing indels after CRISPR-mediated editing, genomic DNA was isolated using the QIAamp DNA Blood Mini kit (Qiagen) or the Extracta DNA Prep kit (Quantabio). sgRNA target regions (100-200 bp up- and 500 bp downstream of sgRNA sequence) were amplified by touchdown PCR (−0.5° C./cycle from 72° C. to 60° C. plus 10 additional cycles at 59° C.) from 50-100 ng input DNA, PCR products were purified using the PureLink Quick PCR purification kit (Invitrogen) if necessary and analyzed by Sanger sequencing. Sequences were analyzed to determine the percentage of edited sequences contained in the sample using TIDE^49 and a “KO-score” using ICE^50 (Synthego). […]

T1 sequence (Q9NXS2 whole entry): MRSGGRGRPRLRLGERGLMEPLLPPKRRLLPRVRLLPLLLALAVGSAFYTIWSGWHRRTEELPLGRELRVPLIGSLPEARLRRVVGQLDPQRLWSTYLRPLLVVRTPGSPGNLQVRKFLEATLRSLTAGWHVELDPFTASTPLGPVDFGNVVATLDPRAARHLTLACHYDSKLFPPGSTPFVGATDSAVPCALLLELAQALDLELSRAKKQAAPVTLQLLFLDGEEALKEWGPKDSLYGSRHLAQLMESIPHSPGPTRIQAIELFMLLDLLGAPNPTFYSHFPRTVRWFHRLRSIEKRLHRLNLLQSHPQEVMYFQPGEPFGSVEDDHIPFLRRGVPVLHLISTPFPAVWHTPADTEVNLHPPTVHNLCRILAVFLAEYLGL

With `CCCOc1ccc([C@H]2CNC(=O)N2c2ccc3[nH]cnc3c2)cc1` [PQ912] the CC2C6 binding (QPCTL) was “decreased”.
In the case of “Guide #4: sgRNA targeting CD47 from the TKOv3 library, sequence GAAGACTATACAACCTCCTA (chemistry not fully specified)”, the gene inactivation (CD47) is reported as “ineffective at gene inactivation”.
Work on “QPCT #1: sgRNA from the TKOv3 library, sequence TCAAGGATCACTCTTTGGAG (chemistry not fully specified)” yielded a KO-score (QPCT target loci) of 56 and a mean percent edited (QPCT target loci) of 33.15%.
“QPCT #2: sgRNA from the TKOv3 library, sequence AGAGGCACCAGCCAACTGCA (chemistry not fully specified)” showed a KO-score (QPCT target loci) of 76.4 and a mean percent edited (QPCT target loci) of 80.2%.
In the case of “QPCT #3: sgRNA from the TKOv3 library, sequence GACCAAATGTCGTTTAGCAG (chemistry not fully specified)”, the KO-score (QPCT target loci) is reported as 36.33 and the mean percent edited (QPCT target loci) is reported as 68.18%.
“QPCTL #1: sgRNA from the TKOv3 library, sequence GGGTTCGCACAACCAGCAGG (chemistry not fully specified)” was tested, and the mean percent edited (QPCTL target loci) was 58.2%.
“QPCTL #2: sgRNA from the TKOv3 library, sequence ACAGGGCACAGCCGAATCCG (chemistry not fully specified)” gave a KO-score (QPCTL target loci; ICE) of 47 and a mean percent edited (QPCTL target loci) of 33.23%.
